This is an account of results in patent US20050169994A1 (priority 2003, published 2005).

The conditions of data set [1]: cited from earlier work.
Data set [2] is described as follows: pH-solubility profile for carvedilol. To be noted: aqueous medium.
For data set [3] the following is noted: pH 7.1.
The conditions of data set [4]: R and S isomers, systemic circulation; cited from earlier work.
Data set [5] in a line: Solubility in water at 25° C. over time, with pH of filtered solution. From the text:
Aliquots were taken out at various time-point, filtered through 0.45 μm Acrodisc GHP filter.

Structures can show the parent of a compound that is named as a salt. Where two headings read alike, the source gives them in different places. A value given as a limit tells only on which side of the number the result lay.

Turning to `COc1ccccc1OCCNCC(O)COc1cccc2[nH]c3ccccc3c12` (stereo not drawn) [Carvedilol], the solubility – broadly, the dissolved amount per volume that the medium holds – in data set [1] (above a pH of 9.0) was < 1 µg/mL; in data set [3] it was 20 to 30 µg/mL. In addition, the saturation solubility entry is “about 100 μg/mL” in data set [1] (pH=5, room temperature) and “about 23 μg/mL” in data set [1] (pH=7, room temperature). Also, in data set [2], the solubility (thermodynamic) (as a rule, the concentration in solution at equilibrium with solid) is ≤ 100 µg/mL. The alpha elimination phase result in data set [4] is on record as “about 1.5 hours”.

Consider `COc1ccccc1OCCNCC(O)COc1cccc2[nH]c3ccccc3c12` (stereo not drawn) [HBr salt, carvedilol hydrobromide], for which, in data set [5], the “aqueous solubility compared with free base” value was “much better aqueous solubility than the free base”.

With `COc1ccccc1OCCNCC(O)COc1cccc2[nH]c3ccccc3c12.O=P(O)(O)O` (stereo not drawn) [Phosphate salt, Carvedilol dihydrogen phosphate], the “aqueous solubility compared with free base” value in data set [5] (in words) is recorded as “much better aqueous solubility than the free base”.

Regarding `COc1ccccc1OCCNCC(O)COc1cccc2[nH]c3ccccc3c12` (stereo not drawn) [hydrochloride salt of carvedilol, carvedilol hydrochloride], in data set [1] (salt generated in situ in acidic medium simulating gastric fluid), the “solubility in acidic medium” value is listed as “less soluble”.
